Legend:
[1] = tested on: β-catenin protein levels in L-Wnt3a cells; test: β-catenin expression by flow cytometry; assay type: cell-based, mouse; details: 100 nmol/L, 24 hours
Procedure: Reporter Assay: Media from L-Wnt3a cells (L cells overexpressing Wnt3a; ATCC CRL-2647) treated with a concentration-series of RXC004, was incubated with the LEADING LIGHT Wnt Reporter Cell Line (Enzo life sciences; ENZ-61002-0001). Luciferase was detected using the ONE-Glo Luciferase Assay System (Promega E6120), data were normalized to DMSO-treated controls and IC50 values determined. Recombinant Wnt3a (Bio-Techne #1324-WN-010) was used at 1 μg/mL. β-catenin expression: L-Wnt3a cells were treated with RXC004 (100 nmol/L) or DMSO (0.1%) for 24 hours. Cellular β-catenin protein levels were quantified by staining with anti-β-catenin (AlexaFluor488, BD 562505) and assessment using an Agilent Novocyte-3000 flow cytometer.

[2] = Microsomal stability; assay type: in vitro ADME, dog (Beagle); details: Dog, 1 μmol/L
Procedure: Metabolic stability: liver microsomes and hepatocytes from human, mouse (CD1), rat (Sprague Dawley) and dog (Beagle) were obtained from Invitrogen. RXC004 (1 μmol/L) was incubated at 37°C with microsomes (0.5 mg · mL^−1) or hepatocytes (0.5 × 10^6 cells · mL^−1). Aliquots were removed at 0–45 minutes and RXC004 concentrations determined by LC/MS-MS analysis. Half-life (T1/2) and intrinsic clearance (CLint) were calculated as described in ref. [18].

[3] = tested on: SNU-1411 xenograft; test: SNU-1411 tumor reimplantation study; assay type: in vivo, mouse (NOD-SCID); details: prior treatment 5 mg/kg once daily, 9 days; versus vehicle pretreated
Procedure: The reimplantation study was performed at Sygnature Discovery. SNU-1411–implanted NOD-SCID mice were dosed orally with RXC004 (5 mg/kg, once daily) once tumors reached an average size of 350 mm^3. After 9 days treatment, tumors were resected and equivalent viable tumor fragments from each tumor were reimplanted into separate naïve NOD-SCID mice, tumor volume was assessed at various subsequent timepoints.

[4] = tested on: B16F10 tumors; test: B16F10/C57BL/6 syngeneic model; assay type: in vivo, mouse (C57BL/6)
Procedure: B16F10/C57BL/6 syngeneic model was performed at Axis Bioservices. Mouse B16F10 cells (2 × 10^5) were subcutaneously implanted in flanks of the immunocompetent male C57BL/6 mice. Treatment was initiated at day 3, once tumors were palpable with RXC004 being dosed orally as indicated. Anti-programmed cell death protein-1 (PD-1; RMP1-14, BioXcell) or isotype control was dosed at 100 μg per dose intraperitoneal, twice weekly. Anti-CTLA-4 antibody (BioXCell BP0131) or isotype control was dosed intraperitoneally every 3 days at 100 μg per dose. Separate experiments were performed for tumor volume and flow cytometry analysis. Tumor volume was assessed in each animal and/or group until prespecified termination conditions and/or study endpoint were reached. For flow cytometry, tumors were resected at day 19, 2 hours after final dose, weighed and digested into a single-cell suspension using collagenase (Liberase, Roche) and DNAase and passed through a strainer prior to flow cytometry analysis on FACS Canto II apparatus using Flow JO software. Single and fluorescence minus one stains were used for compensation setup and gating controls respectively. A myeloid analysis panel included Zombie viability dye (BioLegend #423106), CD11b (BioLegend #101228), CD45, Ly6C, and Ly6G (BD Biosciences #563891, #562727, #551460). Myeloid myeloid-derived suppressor cells (MDSC) were gated as CD45^+CD11b^+ Ly6G-Ly6C^high and polymorphonuclear MDSCs were gated as CD45^+CD11b^+ Ly6G^+Ly6C^med ([21]). For gene expression analysis, tumors were snap frozen, total RNA was extracted and mRNA expression levels for various genes analyzed using the Nanostring nCounter Mouse PanCancer IO360 Codeset.

## Cc1c(-c2ccnc(C(F)(F)F)c2)ncn1CC(=O)Nc1ccc(-c2cnccn2)cn1 [RXC004, 2-[5-methyl-4-[2-(trifluoromethyl)-4-pyridyl]imidazol-1-yl]-N-(5-pyrazin-2-yl-2-pyridyl)acetamide]
[1]
  β-catenin protein levels: reduces β-catenin protein levels in L-Wnt3a cells back to baseline
[2]
  Microsomal stability: CLint: 31.6 μL minute^−^1 · mg^−^1
[3]
  tumor growth after reimplantation into naïve untreated mice: prolonged impact on tumor growth
[4]; 5 mg/kg QD versus vehicle, P <0.0001, Log-rank test
  survival hazard ratio: 0.27
[4]; 5 mg/kg once daily
  survival: significantly increased survival
  tumor expression of CXCL9: increased tumor expression of the chemokine CXCL9
  tumor-associated CD45+ immune cells (Nanostring): significantly increased the overall tumor-associated CD45^+ immune cells
[4]; 5 mg/kg once daily, day 19
  circulating MDSC: concomitant increase in circulating MDSC
  tumor-associated MDSCs: significantly reduced tumor-associated MDSCs
[4]; RXC004 5 mg/kg once daily, anti-PD-1 100 μg per dose twice a week
  tumor volume / tumor growth: significant tumor growth inhibition
